The target in test [1] is wild type PRC2 (wtPRC2) complex (Homo sapiens (Human), UniProt O75530). The test can be described thus: EED LC-MS assay. In kind it is biochemical. The settings on record: read-out: (b) IC50 EED LC-MS Qualified. Here is the method:
A 6 μL solution of 3 μM of the peptide substrate H3K27Me0 (histone H3[21-44]-biotin) in reaction buffer was added to initiate each reaction. […] ELISA (H3K27 Methylation) Assay

In the next test the target is EED (1-441)-His protein (Homo sapiens (Human), UniProt O75530). The test can be described thus: EED-H3K27Me3 peptide competition binding assay by AlphaScreen. The settings on record: read-out: (a) IC50 EED Alphascreen binding Qualified. The text has this: EED-H3K27Me3 peptide competition binding assay by AlphaScreen (α-screen)
Chain of EED (1-441)-His protein (O75530 whole entry): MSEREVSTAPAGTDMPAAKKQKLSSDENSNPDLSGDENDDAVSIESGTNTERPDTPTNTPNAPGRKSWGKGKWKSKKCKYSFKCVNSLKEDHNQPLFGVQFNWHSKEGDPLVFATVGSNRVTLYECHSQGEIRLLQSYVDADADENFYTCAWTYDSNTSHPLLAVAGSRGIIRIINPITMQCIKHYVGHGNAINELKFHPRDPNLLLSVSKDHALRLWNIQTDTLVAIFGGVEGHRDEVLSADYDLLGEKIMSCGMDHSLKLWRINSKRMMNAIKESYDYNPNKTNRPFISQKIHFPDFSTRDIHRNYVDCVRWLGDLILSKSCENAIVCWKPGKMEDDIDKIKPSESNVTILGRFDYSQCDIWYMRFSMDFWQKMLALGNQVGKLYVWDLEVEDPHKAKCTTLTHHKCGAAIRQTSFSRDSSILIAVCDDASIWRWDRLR
(In general: In Alpha technology, singlet oxygen from a donor bead excites a nearby acceptor bead.)

This note sets out measurements from patent US9580437B2, “Triazolopyrimidine compounds and uses thereof” (Novartis AG, priority 2014, dated 2017).

Chain of wild type PRC2 (wtPRC2) complex (O75530 whole entry): as above
Chain of wild type PRC2 (wtPRC2) complex (Q15910 whole entry partner): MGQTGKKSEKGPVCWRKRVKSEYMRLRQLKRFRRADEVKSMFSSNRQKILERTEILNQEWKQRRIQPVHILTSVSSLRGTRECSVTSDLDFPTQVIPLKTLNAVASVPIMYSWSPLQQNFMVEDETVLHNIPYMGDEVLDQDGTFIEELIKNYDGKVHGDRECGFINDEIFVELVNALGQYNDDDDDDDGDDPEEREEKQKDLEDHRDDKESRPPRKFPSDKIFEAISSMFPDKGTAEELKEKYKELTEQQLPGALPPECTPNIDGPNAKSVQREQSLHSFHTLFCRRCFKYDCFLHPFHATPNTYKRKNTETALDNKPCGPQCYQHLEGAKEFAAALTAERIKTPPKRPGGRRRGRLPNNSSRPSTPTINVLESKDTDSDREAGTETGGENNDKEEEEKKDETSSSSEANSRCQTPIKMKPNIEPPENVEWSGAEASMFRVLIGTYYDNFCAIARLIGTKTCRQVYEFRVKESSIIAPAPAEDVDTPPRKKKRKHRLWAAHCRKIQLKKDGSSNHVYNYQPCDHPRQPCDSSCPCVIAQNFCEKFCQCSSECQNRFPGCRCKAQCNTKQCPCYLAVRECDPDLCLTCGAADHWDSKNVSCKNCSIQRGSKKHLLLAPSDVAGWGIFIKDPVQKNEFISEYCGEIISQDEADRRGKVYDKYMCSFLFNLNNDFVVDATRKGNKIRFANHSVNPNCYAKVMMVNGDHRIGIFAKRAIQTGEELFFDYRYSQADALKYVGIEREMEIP
Chain of wild type PRC2 (wtPRC2) complex (Q15022 whole entry partner): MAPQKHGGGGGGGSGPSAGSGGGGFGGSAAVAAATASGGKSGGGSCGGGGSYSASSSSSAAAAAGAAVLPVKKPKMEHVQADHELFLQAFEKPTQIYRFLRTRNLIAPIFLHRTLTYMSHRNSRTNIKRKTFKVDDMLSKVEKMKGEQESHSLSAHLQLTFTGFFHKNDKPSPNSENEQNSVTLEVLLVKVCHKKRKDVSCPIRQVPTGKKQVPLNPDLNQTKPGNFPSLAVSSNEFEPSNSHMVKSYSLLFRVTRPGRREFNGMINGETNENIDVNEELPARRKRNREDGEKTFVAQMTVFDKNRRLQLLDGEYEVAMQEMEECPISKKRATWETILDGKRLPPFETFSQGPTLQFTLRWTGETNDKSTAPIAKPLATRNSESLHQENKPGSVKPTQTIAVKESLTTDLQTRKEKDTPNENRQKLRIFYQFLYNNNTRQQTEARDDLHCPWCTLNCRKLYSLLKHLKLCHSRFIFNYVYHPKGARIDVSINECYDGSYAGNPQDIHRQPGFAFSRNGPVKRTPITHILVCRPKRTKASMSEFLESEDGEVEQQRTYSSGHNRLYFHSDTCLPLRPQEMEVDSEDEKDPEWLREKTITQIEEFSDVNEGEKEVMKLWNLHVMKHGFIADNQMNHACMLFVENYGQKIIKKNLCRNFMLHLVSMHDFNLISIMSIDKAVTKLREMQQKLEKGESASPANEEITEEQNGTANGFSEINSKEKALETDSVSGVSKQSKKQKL

For the molecule `Fc1ccc2c(c1CNc1ncc(-c3ccnn3C3CC3)c3nncn13)CCO2` [Example 192, 8-(1-cyclopropyl-1H-pyrazol-5-yl)-N-((5-fluoro-2,3-dihydrobenzofuran-4-yl)methyl)-[1,2,4]triazolo[4,3-c]pyrimidin-5-amine], the figures for the IC50 (in test [1]; on EED (1-441)-His protein) were 12.6 nM and 3.5 nM, respectively.

In the case of `FCc1ncccc1-c1cnc(NCc2c(F)ccc3c2CCO3)n2cnnc12` [Example 193, N-((5-fluoro-2,3-dihydrobenzofuran-4-yl)methyl)-8-(2-(fluoromethyl)pyridin-3-yl)-[1,2,4]triazolo[4,3-c]pyrimidin-5-amine], the IC50 in test [1] was found to be 13 nM; at EED (1-441)-His protein it was 4 nM.

For the molecule `Cc1cc(-c2cnc(NCc3c(F)ccc4c3CCO4)n3cnnc23)c(C)cn1` [Example 194, 8-(2,5-dimethylpyridin-4-yl)-N-((5-fluoro-2,3-dihydrobenzofuran-4-yl)methyl)-[1,2,4]triazolo[4,3-c]pyrimidin-5-amine], the IC50 is 7 nM in test [1] and 2.4 nM at EED (1-441)-His protein.

Take `Cc1nn(C)cc1-c1cnc(NCc2c(F)ccc3c2CCO3)n2cnnc12` [Example 195, 8-(1,3-dimethyl-1H-pyrazol-4-yl)-N-((5-fluoro-2,3-dihydrobenzofuran-4-yl)methyl)-[1,2,4]triazolo[4,3-c]pyrimidin-5-amine]: the IC50 is 11.6 nM in test [1] and 5.9 nM at EED (1-441)-His protein.

`CCOc1cc(C)c(-c2cnc(NCc3c(F)ccc4c3CCO4)n3cnnc23)cn1` [Example 196, 8-(6-ethoxy-4-methylpyridin-3-yl)-N-((5-fluoro-2,3-dihydrobenzofuran-4-yl)methyl)-[1,2,4]triazolo[4,3-c]pyrimidin-5-amine]: the IC50 in test [1] came to 8.2 nM; on EED (1-441)-His protein it was 3.6 nM.

For `Cc1cc(OC(F)F)ncc1-c1cnc(NCc2c(F)ccc3c2CCO3)n2cnnc12` [Example 197, 8-(6-(difluoromethoxy)-4-methylpyridin-3-yl)-N-((5-fluoro-2,3-dihydrobenzofuran-4-yl)methyl)-[1,2,4]triazolo[4,3-c]pyrimidin-5-amine], the IC50 in test [1] was 5.7 nM; on EED (1-441)-His protein, 2.2 nM.

In the case of `Cc1cnc(C(F)F)cc1-c1cnc(NCc2c(F)ccc3c2CCO3)n2cnnc12` [Example 198, 8-(2-(difluoromethyl)-5-methylpyridin-4-yl)-N-((5-fluoro-2,3-dihydrobenzofuran-4-yl)methyl)-[1,2,4]triazolo[4,3-c]pyrimidin-5-amine], the IC50 in test [1] came out at 17.3 nM; on EED (1-441)-His protein it was 4.4 nM.

Turning to `Cc1nc(C(=O)N(C)C)ccc1-c1cnc(NCc2c(F)ccc3c2CCO3)n2cnnc12` [Example 199, 5-(5-(((5-fluoro-2,3-dihydrobenzofuran-4-yl)methyl)amino)-[1,2,4]triazolo[4,3-c]pyrimidin-8-yl)-N,N,6-trimethylpicolinamide], the figures for the IC50 (in test [1]; on EED (1-441)-His protein) were 7.2 nM and 4.2 nM, respectively.

Consider `Cn1cc(-c2cnc(NCc3c(F)ccc4c3CCO4)n3cnnc23)c(C(F)F)n1` [Example 200, 8-(3-(difluoromethyl)-1-methyl-1H-pyrazol-4-yl)-N-((5-fluoro-2,3-dihydrobenzofuran-4-yl)methyl)-[1,2,4]triazolo[4,3-c]pyrimidin-5-amine], for which the IC50 was found to be 9.5 nM in test [1] and 7.5 nM at EED (1-441)-His protein.

As for `Cc1ccc(-c2cnc(NCc3c(F)ccc4c3CCO4)n3cnnc23)c(C(F)F)n1` [Example 201, 8-(2-(difluoromethyl)-6-methylpyridin-3-yl)-N-((5-fluoro-2,3-dihydrobenzofuran-4-yl)methyl)-[1,2,4]triazolo[4,3-c]pyrimidin-5-amine], the IC50 in test [1] is 7.3 nM; on EED (1-441)-His protein, 5.9 nM.

Consider `Fc1ccc2c(c1CNc1ncc(-c3ccnnc3)c3nncn13)CCO2` [Example 202, N-((5-fluoro-2,3-dihydrobenzofuran-4-yl)methyl)-8-(pyridazin-4-yl)-[1,2,4]triazolo[4,3-c]pyrimidin-5-amine], for which the IC50 in test [1] worked out at 18.7 nM; on EED (1-441)-His protein, 9.6 nM.

What is called IC50 is the midpoint of a concentration-inhibition curve.
